From US10087165B2, “Fluoroquinolones and use thereof to treat bacterial infections” (UNIVERSITÉ PIERRE ET MARIE CURIE—PARIS 6 (UPMC), priority 2014, dated 2018)
In brackets after ≈: the same amount, converted by molar mass. Where two headings read alike, the source gives them in different places.

Columns and labels:
[1] = target: M. tuberculosis DNA gyrase (Mycobacterium tuberculosis, UniProt P9WG45+P9WG47); experiment: biochemical
[2] = system: M. tuberculosis H37Rv strain; experiment: Minimal effective dosage in the murine TB model; format: in vivo, Balb/C/J female mice; design: Mice weight: unit not given here; conditions: for Survival: No. death: 10 mice
Description: Four-week-old Balb/C/J female mice were infected intravenously with 10^6 CFU of M. tuberculosis H37Rv strain. On the day following the infection (D1), 10 mice were sacrificed to determine the exact baseline values of spleen weight and CFU counts in the lungs. The remaining mice were allocated to the following treatment groups: an untreated negative control group for survival monitoring, a positive control group treated for 1 month with isoniazid (INH) 25 mg/kg/d, […] test groups were treated with Quin18 and Quin19 at increasing dosages (25 mg/kg/d; 50 mg/kg/d; 100 mg/kg/d; 150 mg/kg/d) given by oral gavage, and two additional test groups were treated intravenously with Quin18 25 mg/kg/d and 100 mg/kg/d. All the groups contained 10 mice and were treated from D1 to D28, 5 days a week. The parameters used for assessing the severity of infection and the effectiveness of treatments were survival rate, spleen weight, gross lung lesions and CFU counts in the lungs.
The minimal effective dosage was defined as the minimal dosage able to prevent mortality of the mice, spleen enlargement and the occurrence of gross lung lesions. CFU counts were considered to be a more precise way of determining the dose-ranging efficacy of Quin18 and Quin19.
Survival rates between groups were plotted on a Kaplan-Meier curve and compared using the log-rank test.

[3] = system: M. tuberculosis H37Rv; experiment: microbe, parasite or virus in culture; format: cell-based; conditions: for MIC: Mycobacterium tuberculosis
[4] = Acute toxicity in healthy female CD-1 mice after a single oral treatment; format: in vivo; conditions: for Macroscopic autopsy: Observations: sacrifice at end of study
Description: The aim of this study was to evaluate the acute toxicity of two new compounds (Quin 18 and Quin 19) in healthy female CD-1 after a single oral treatment at D0.
Toxicity of treatment was evaluated by monitoring of animals (general signs of pharmacologic and toxicity effects, morbidity, mortality and evident signs of toxicity, as well as twice-weekly monitoring for clinical signs and body weight) until the end of the experiment (D14). At the end of the experiment, animals were sacrificed and macroscopic autopsy was performed.
Mice of each group were administered by per os (PO) injection at 10 ml/kg according to the standard operating procedure No. TEC-078. The recommended volume for per os (PO) administration in mice is 10 ml/kg.
Morbidity, mortality and evident signs of toxicity of mice were considered daily from D0 until the end of the experiment (D14 or D15).
Monitoring of mice for detailed behavioral and clinical observations was performed twice a week from D0 until the end of the experiment (D14 or D15) according to the standard operating procedures No. TEC-192.
Body weight of mice was monitored at D1, D2 and then twice a week until the end of the experiment (D14 or D15) according to the standard operating procedures No. TEC-108. Weight loss was assessed against the starting weight of each mouse at D0.
During the course of the experiment, animals were sacrificed if any of the following occurs: • Signs of suffering (cachexia, weakening, difficulty to move or to eat), • Compound toxicity (hunching, convulsions), • 25% body weight loss on any day. Sacrifice of Animals
At D14 or D15, animals were be sacrificed by CO2 inhalation and a macroscopic autopsy was performed.

M. tuberculosis DNA gyrase, sequence (P9WG47 whole entry): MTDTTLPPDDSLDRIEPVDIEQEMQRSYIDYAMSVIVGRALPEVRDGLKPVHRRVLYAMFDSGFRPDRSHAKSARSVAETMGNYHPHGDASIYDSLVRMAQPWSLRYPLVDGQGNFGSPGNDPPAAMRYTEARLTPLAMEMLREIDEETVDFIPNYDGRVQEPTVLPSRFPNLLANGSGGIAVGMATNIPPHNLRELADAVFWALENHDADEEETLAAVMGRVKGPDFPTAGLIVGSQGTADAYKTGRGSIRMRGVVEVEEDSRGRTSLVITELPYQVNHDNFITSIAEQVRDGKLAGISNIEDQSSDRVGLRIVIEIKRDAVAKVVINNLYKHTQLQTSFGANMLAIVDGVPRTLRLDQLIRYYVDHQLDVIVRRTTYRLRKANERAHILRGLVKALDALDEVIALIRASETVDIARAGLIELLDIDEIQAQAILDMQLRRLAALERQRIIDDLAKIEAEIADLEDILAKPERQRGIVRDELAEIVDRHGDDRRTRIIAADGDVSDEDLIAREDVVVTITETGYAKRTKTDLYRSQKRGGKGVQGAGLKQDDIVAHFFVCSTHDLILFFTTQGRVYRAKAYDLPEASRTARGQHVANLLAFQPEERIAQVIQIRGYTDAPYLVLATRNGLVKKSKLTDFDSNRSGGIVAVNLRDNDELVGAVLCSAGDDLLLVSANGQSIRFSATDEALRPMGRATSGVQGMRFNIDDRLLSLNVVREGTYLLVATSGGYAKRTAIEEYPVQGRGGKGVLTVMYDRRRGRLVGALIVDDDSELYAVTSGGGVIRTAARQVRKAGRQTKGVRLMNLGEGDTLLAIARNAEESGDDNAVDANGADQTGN
M. tuberculosis DNA gyrase, sequence (P9WG45 whole entry): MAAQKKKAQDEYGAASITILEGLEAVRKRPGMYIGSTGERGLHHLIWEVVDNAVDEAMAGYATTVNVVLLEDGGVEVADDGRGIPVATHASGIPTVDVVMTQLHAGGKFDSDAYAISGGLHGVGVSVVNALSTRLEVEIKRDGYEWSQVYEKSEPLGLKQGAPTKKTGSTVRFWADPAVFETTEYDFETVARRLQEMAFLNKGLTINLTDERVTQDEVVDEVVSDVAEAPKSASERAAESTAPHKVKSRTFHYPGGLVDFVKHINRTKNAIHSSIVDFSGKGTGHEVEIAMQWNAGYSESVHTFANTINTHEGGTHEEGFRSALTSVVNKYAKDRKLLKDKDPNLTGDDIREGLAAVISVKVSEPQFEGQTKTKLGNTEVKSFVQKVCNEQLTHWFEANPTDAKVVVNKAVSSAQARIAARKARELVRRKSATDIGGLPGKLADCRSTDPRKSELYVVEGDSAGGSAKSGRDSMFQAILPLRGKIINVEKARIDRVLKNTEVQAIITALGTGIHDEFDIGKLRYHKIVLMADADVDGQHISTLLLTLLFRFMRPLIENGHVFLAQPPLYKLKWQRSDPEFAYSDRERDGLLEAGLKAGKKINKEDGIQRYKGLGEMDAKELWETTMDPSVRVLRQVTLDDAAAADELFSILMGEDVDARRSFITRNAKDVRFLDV

CCCCCCCCN1CCN(c2c(F)cc3c(=O)c(C(=O)O)cn(C4CC4)c3c2OC)CC1 [Quin 18, 1-cyclopropyl-6-fluoro-8-methoxy-7-(4-octylpiperazin-1-yl)-4-oxo-1,4-dihydroquinoline-3-carboxylic acid]
IC50 [1]: 195 µM
Mice weight ([2]; 25 mg/kg/j, Gavage): 19.4 ± 0.9
Spleen weight ([2]; 25 mg/kg/j, Gavage): 258.6 ± 155 mg
Survival: No. death ([2]; 25 mg/kg/j, Gavage, D1 to D28, 5 days a week): 0
Mice weight ([2]; 25 mg/kg/j, Intravenously): 20 ± 1
Spleen weight ([2]; 25 mg/kg/j, Intravenously): 391 ± 89.7 mg
Survival: No. death ([2]; 25 mg/kg/j, Intravenously): 0
Mice weight ([2]; 50 mg/kg/j, Gavage): 20 ± 1.6
Spleen weight ([2]; 50 mg/kg/j, Gavage): 231 ± 63.3 mg
Survival: No. death ([2]; 50 mg/kg/j, Gavage): 0
Mice weight ([2]; 100 mg/kg/j, Gavage): 19.4 ± 1.5
Spleen weight ([2]; 100 mg/kg/j, Gavage): 210 ± 104.1 mg
Survival: No. death ([2]; 100 mg/kg/j, Gavage): 0
Mice weight ([2]; 100 mg/kg/j, Intravenously): 20 ± 1.1
Spleen weight ([2]; 100 mg/kg/j, Intravenously): 400 ± 7.7 mg
Survival: No. death ([2]; 100 mg/kg/j, Intravenously): 1
Mice weight ([2]; 150 mg/kg/j, Gavage): 20.3 ± 0.8
Spleen weight ([2]; 150 mg/kg/j, Gavage): 239.8 ± 129.3 mg
Survival: No. death ([2]; 150 mg/kg/j, Gavage): 0
Efficacy in a mouse model of tuberculosis (in words) ([2]; given orally): outstanding efficacy
Spleen weights compared with untreated group (in words) ([2]; treated intravenously): spleen weights similar than the untreated group
Survival compared with untreated group (in words) ([2]; whatever the dosage (25, 50, 100 and 150 mg/kg/d) and the administration route): statistically superior to untreated group
antibacterial activity against wild-type M. tuberculosis strain (in words) ([3]; H37Rv): high antibacterial activity
MIC ([3]; H37RV, Table 3, read-out: MIC M. tuberculosis H37Rv): 0.12 µM (≈ 0.0568 µg/mL)
MIC ([3]; H37Rv, Table 2, read-out: MIC (M. tuberculosis) WT): ≤ 0.12 µM
Loss of body weight (in words) ([4]; Group A1: 100 mg/kg PO Q1Dx1): did not exhibited any loss of body weight
Tolerance (in words) ([4]; Group A1: 100 mg/kg PO Q1Dx1, polysorbate 80 0.4%, with sonication): well tolerated
Mean body weight (MBW) ([4]; Group A1: 100 mg/kg PO Q1Dx1, with sonication, D1): 31.33 ± 0.8 g
Mean body weight (MBW) ([4]; Group A1: 100 mg/kg PO Q1Dx1, with sonication, D2): 31.2 ± 0.7 g
Mean body weight (MBW) ([4]; Group A1: 100 mg/kg PO Q1Dx1, with sonication, D3): 30.3 ± 0.53 g
Mean body weight (MBW) ([4]; Group A1: 100 mg/kg PO Q1Dx1, with sonication, D4): 30.47 ± 0.78 g
Mean body weight (MBW) ([4]; Group A1: 100 mg/kg PO Q1Dx1, with sonication, D7): 31.63 ± 0.49 g
Mean body weight (MBW) ([4]; Group A1: 100 mg/kg PO Q1Dx1, with sonication, D11): 32.3 ± 1.37 g
Mean body weight (MBW) ([4]; Group A1: 100 mg/kg PO Q1Dx1, with sonication, D14): 31.77 ± 0.76 g
Macroscopic autopsy: Observations ([4]; Group A1: 100 mg/kg PO Q1Dx1): NTR
Mean body weight (MBW) ([4]; Group A1: polysorbate 80 0.4%, 10 mg/ml with sonication, 100 mg/kg PO Q1Dx1, D0, 100 mg/kg): 31.5 ± 1.48 g
Loss of body weight (in words) ([4]; Group A2: 200 mg/kg PO Q1Dx1): did not exhibited any loss of body weight
Tolerance (in words) ([4]; Group A2: 200 mg/kg PO Q1Dx1, polysorbate 80 0.4%, with sonication): well tolerated
Mean body weight (MBW) ([4]; Group A2: 200 mg/kg PO Q1Dx1, with sonication, D1): 31.13 ± 1.01 g
Mean body weight (MBW) ([4]; Group A2: 200 mg/kg PO Q1Dx1, with sonication, D2): 30.27 ± 0.74 g
Mean body weight (MBW) ([4]; Group A2: 200 mg/kg PO Q1Dx1, with sonication, D3): 30.7 ± 0.44 g
Mean body weight (MBW) ([4]; Group A2: 200 mg/kg PO Q1Dx1, with sonication, D7): 31.67 ± 0.49 g
Mean body weight (MBW) ([4]; Group A2: 200 mg/kg PO Q1Dx1, with sonication, D10): 31.73 ± 0.95 g
Mean body weight (MBW) ([4]; Group A2: 200 mg/kg PO Q1Dx1, with sonication, D14): 32.6 ± 1.35 g
Macroscopic autopsy: Observations ([4]; Group A2: 200 mg/kg PO Q1Dx1): NTR
Mean body weight (MBW) ([4]; Group A2: polysorbate 80 0.4%, 20 mg/ml with sonication, 200 mg/kg PO Q1Dx1, D0, 200 mg/kg): 30.2 ± 1.15 g
Loss of body weight (in words) ([4]; Group A3: 100 mg/kg PO Q1Dx1): did not exhibited any loss of body weight
Tolerance (in words) ([4]; Group A3: 100 mg/kg PO Q1Dx1, polysorbate 80 0.4%): well tolerated
Mean body weight (MBW) ([4]; Group A3: 100 mg/kg PO Q1Dx1, without sonication, D1): 29.8 ± 1.05 g
Mean body weight (MBW) ([4]; Group A3: 100 mg/kg PO Q1Dx1, without sonication, D2): 30.4 ± 1.25 g
Mean body weight (MBW) ([4]; Group A3: 100 mg/kg PO Q1Dx1, without sonication, D4): 30 ± 1.01 g
Mean body weight (MBW) ([4]; Group A3: 100 mg/kg PO Q1Dx1, without sonication, D7): 31.33 ± 0.74 g
Mean body weight (MBW) ([4]; Group A3: 100 mg/kg PO Q1Dx1, without sonication, D11): 32.3 ± 2.02 g
Mean body weight (MBW) ([4]; Group A3: 100 mg/kg PO Q1Dx1, without sonication, D15): 32.17 ± 1.94 g
Macroscopic autopsy: Observations ([4]; Group A3: 100 mg/kg PO Q1Dx1): NTR
Mean body weight (MBW) ([4]; Group A3: polysorbate 80 0.4%, 10 mg/ml without sonication, 100 mg/kg PO Q1Dx1, D0, 100 mg/kg): 29.9 ± 1.25 g
Loss of body weight (in words) ([4]; Group A4: 200 mg/kg PO): did not exhibited any loss of body weight
Mean body weight (MBW) ([4]; Group A4: 200 mg/kg PO 2Q1Dx1, without sonication, D1): 29.73 ± 1.22 g
Mean body weight (MBW) ([4]; Group A4: 200 mg/kg PO 2Q1Dx1, without sonication, D2): 30.2 ± 1.31 g
Mean body weight (MBW) ([4]; Group A4: 200 mg/kg PO 2Q1Dx1, without sonication, D5): 30 ± 1.45 g
Mean body weight (MBW) ([4]; Group A4: 200 mg/kg PO 2Q1Dx1, without sonication, D9): 30.93 ± 3.04 g
Mean body weight (MBW) ([4]; Group A4: 200 mg/kg PO 2Q1Dx1, without sonication, D13): 31.73 ± 2.64 g
Mean body weight (MBW) ([4]; Group A4: 200 mg/kg PO 2Q1Dx1, without sonication, D14): 31.33 ± 1.63 g
Macroscopic autopsy: Observations ([4]; Group A4: 200 mg/kg PO 2Q1Dx1): NTR
Tolerance (in words) ([4]; Group A4: 200 mg/kg PO, polysorbate 80 0.4%): well tolerated
Mean body weight (MBW) ([4]; Group A4: polysorbate 80 0.4%, 10 mg/ml without sonication, 200 mg/kg PO 2Q1Dx1 (2 hours between the 2 injections), D0, 200 mg/kg): 29.5 ± 0.89 g
Autopsy, macroscopic observations (in words) ([4]; all treated groups): No particular sign was observed
Dose up to which well tolerated (maximal solubility) ([4]; in polysorbate 80 0.4%, PO, female mice): up to 200 mg/kg
Signs of toxicity at the dose levels tested (in words) ([4]; mice): no signs of toxicity
